Earlier results, collected in patent publication US9061040B2, “Combination therapy for breast cancer” (priority 2011, dated 2015).

Columns and labels:
liver cancer = settings: 45 mg daily for two years, women with viral liver cirrhosis
prostate cancer = settings: male smokers
advanced prostate cancer = settings: supplemental intake greater than 400 IU/day; current smokers or quit within the past 10 years
[1] = 180-300 mg/day over 10 years

For menaquinone [vitamin K2 (menaquinone)], the “less likely to develop liver cancer” value (liver cancer) is given as ~90%.
In the case of vitamin E, the “reduction of prostate cancer cases” value (prostate cancer; 50 mg daily versus no vitamin E) is listed as “one-third reduction”, the “new cases of prostate cancer among participants who received vitamin E” value (prostate cancer; 50 mg daily, 5 to 8-year intervention, 147 cases without vitamin E, 246 in total) is listed as 99 cases and the “reduction in risk of advanced prostate cancer” value (advanced prostate cancer) is listed as 71%.
In the case of CC1=C(/C=C/C(C)=C/C=C/C(C)=C/C=C/C=C(C)/C=C/C=C(C)/C=C/C2=C(C)CCCC2(C)C)C(C)(C)CCC1 [β-carotene], the toxicity [1] is given as “did not show any toxicity”.
